Test results: patent US20190045783A1, “SUBSTITUTED IMIDAZOLYLCARBOXAMIDES AS PESTICIDES” (BAYER CROPSCIENCE AKTIENGESELLSCHAFT, priority 2016, published 2019)
Read-outs that look alike come from different tables or passages of the source.

Columns and labels:
[1] = log P by HPLC on reversed-phase column (C18), EEC directive 79/831 Annex V.A8; type: physicochemical
[2] = system: green peach aphids (Myzus persicae); assay: Myzus persicae oral test; type: in vivo; conditions: for pest or weed control at 20 ppm: Myzus persicae, 120 h, read-out: efficacy in %
Experimental: Solvent: 100 parts by weight of acetone
Subsequently, the plates are sealed with parafilm, which a mixed population of green peach aphids (Myzus persicae) within a second microtitre plate is able to puncture and imbibe the solution through it.
After 5 days, the efficacy in % is determined. 100% means that all the aphids have been killed; 0% means that no aphids have been killed.

[3] = system: green peach aphid (Myzus persicae); assay: Myzus persicae spray test (Chinese cabbage leaf discs); type: in vivo; conditions: for pest or weed control at 500 g/ha: Myzus persicae, foliar, read-out: efficacy in %
Experimental: Myzus persicae—Spray Test
To produce a suitable active ingredient formulation, 1 part by weight of active ingredient is dissolved with the stated parts by weight of solvent and made up with water containing an emulsifier concentration of 1000 ppm until the desired concentration is attained. To produce further test concentrations, the formulation is diluted with emulsifier-containing water.
After 5-6 days, the efficacy in % is determined. 100% means that all the aphids have been killed; 0% means that no aphids have been killed.

[4] = application rate 20 ppm, after 5 days, oral, 100% = all aphids killed
[5] = application rate 500 g/ha, after 5-6 days, Chinese cabbage leaf discs, 100% = all aphids killed
[6] = reversed-phase HPLC column (C18), neutral range, pH 7.8, HPLC C18, 43° C., preparation examples, read-out: log P[n]
[7] = neutral range, pH 7.8, HPLC C18, 43° C., preparation examples, read-out: log P[n]

## CO/N=C/c1ncc(C(=O)N(C)c2cccnc2)n1C [I-1-001]
[1]; pH 7.8
  logP [n]: 1.1
[2]; [4]
  efficacy in %: 100%
[3]; [5]
  efficacy in %: 90%

## CN(C(=O)c1cnc(C2OCCO2)n1C)c1cccnc1 [I-1-002]
[1]; pH 7.8
  logP [n]: 0.73
[2]; [4]
  efficacy in %: 100%
[3]; [5]
  efficacy in %: 90%

## CCN(C(=O)c1cnc(C2OCCO2)n1C)c1cccnc1 [I-1-003]
[1]; pH 7.8
  logP [n]: 0.98
[2]; [4]
  efficacy in %: 100%
[3]; [5]
  efficacy in %: 90%

## CCO/N=C/c1ncc(C(=O)N(C)c2cccnc2)n1C [I-1-004]
[1]; pH 7.8
  logP [n]: 1.41
[2]; [4]
  efficacy in %: 100%
[3]; [5]
  efficacy in %: 90%

## CC(C)O/N=C/c1ncc(C(=O)N(C)c2cccnc2)n1C [I-1-005]
[1]; pH 7.8
  logP [n]: 1.7
[2]; [4]
  efficacy in %: 100%
[3]; [5]
  efficacy in %: 100%

## CN(C(=O)c1cnc(C=O)n1C)c1cccnc1 [I-1-007, 2-Formyl-N,1-dimethyl-N-(pyridin-3-yl)-1H-imidazole-5-carboxamide]
[1]; [6]
  chromatographic logP: 0.59
[2]; po
  pest or weed control at 20 ppm: 100%
[3]
  pest or weed control at 500 g/ha: 100%

## COCC1COC(c2ncc(C(=O)N(C)c3cccnc3)n2C)O1 (centres unmarked) [I-1-009]
[1]; pH 7.8
  logP [n]: 0.95
[2]; [4]
  efficacy in %: 100%
[3]; [5]
  efficacy in %: 90%

## CCC1COC(c2ncc(C(=O)N(C)c3cccnc3)n2C)O1 (centres unmarked) [I-1-011]
[1]; pH 7.8
  logP [n]: 1.3
[2]; [4]
  efficacy in %: 100%
[3]; [5]
  efficacy in %: 90%

## C=CCO/N=C/c1ncc(C(=O)N(C)c2cccnc2)n1C [I-1-012]
[1]; pH 7.8
  logP [n]: 1.55
[2]; [4]
  efficacy in %: 100%
[3]; [5]
  efficacy in %: 90%

## CN(C(=O)c1cnc(/C=N/OCc2ccccn2)n1C)c1cccnc1 [I-1-013]
[1]; pH 7.8
  logP [n]: 1.26
[2]; [4]
  efficacy in %: 100%
[3]; [5]
  efficacy in %: 100%

## CC1COC(c2ncc(C(=O)N(C)c3cccnc3)n2C)O1 (centres unmarked) [I-1-014]
[1]; pH 7.8
  logP [n]: 1.02
[2]; [4]
  efficacy in %: 100%
[3]; [5]
  efficacy in %: 100%

## CN(C(=O)c1cnc(C2OCC3(CC3)CO2)n1C)c1cccnc1 [I-1-015]
[1]; pH 7.8
  logP [n]: 1.29
[2]; [4]
  efficacy in %: 100%
[3]; [5]
  efficacy in %: 90%

## CN(C(=O)c1cnc(C2COC(C)(C)OC2)n1C)c1cccnc1 [I-1-016, 2-(2,2-Dimethyl-1,3-dioxan-5-yl)-N,1-dimethyl-N-(pyridin-3-yl)-1H-imidazole-5-carboxamide]
[1]; pH 7.8
  log P[n]: 1.48
  logP [n]: 1.48
[2]; [4]
  efficacy in %: 100%
[3]; [5]
  efficacy in %: 100%

## CCOC(=O)N/N=C/c1ncc(C(=O)N(C)c2cccnc2)n1C [I-1-017]
[1]; pH 7.8
  logP [n]: 1.06
[2]; [4]
  efficacy in %: 100%
[3]; [5]
  efficacy in %: 100%

## COC(=O)N(C)/N=C/c1ncc(C(=O)N(C)c2cccnc2)n1C [I-1-018, Methyl (2E)-1-methyl-2-({1-methyl-5-[methyl(pyridin-3-yl)carbamoyl]-1H-imidazol-2-yl}methylene)hydrazinecarboxylate]
[1]; [7]
  chromatographic logP: 1.08
[2]; [4]
  pest or weed control at 20 ppm: 100%
[3]; [5]
  pest or weed control at 500 g/ha: 100%

## CCOC(=O)N(C)/N=C/c1ncc(C(=O)N(C)c2cccnc2)n1C [I-1-019]
[1]; pH 7.8
  logP [n]: 1.33
[2]; [4]
  efficacy in %: 100%
[3]; [5]
  efficacy in %: 90%

## CC1OC(c2ncc(C(=O)N(C)c3cccnc3)n2C)OC1C (centres unmarked) [I-1-020]
[1]; pH 7.8
  logP [n]: 1.23
[2]; [4]
  efficacy in %: 100%
[3]; [5]
  efficacy in %: 100%

## CN(C(=O)c1cnc(C2OCCS2)n1C)c1cccnc1 (centres unmarked) [I-1-021]
[1]; pH 7.8
  logP [n]: 0.97
[2]; [4]
  efficacy in %: 100%
[3]; [5]
  efficacy in %: 100%

## CN(C(=O)c1cnc(C2OCCCS2)n1C)c1cccnc1 (centres unmarked) [I-1-022]
[1]; pH 7.8
  logP [n]: 1.13
[2]; [4]
  efficacy in %: 100%
[3]; [5]
  efficacy in %: 100%

## CCCO/N=C/c1ncc(C(=O)N(C)c2cccnc2)n1C [I-1-023]
[1]; pH 7.8
  logP [n]: 1.74
[2]; [4]
  efficacy in %: 100%
[3]; [5]
  efficacy in %: 100%

## COC(=O)c1ncc(C(=O)N(C)c2cccnc2)n1C [I-1-026, Methyl 1-methyl-5-[methyl(pyridin-3-yl)carbamoyl]-1H-imidazol-2-carboxylate]
[1]; acidic range, pH 2.7, HPLC C18, 43° C., preparation examples, read-out: log P[a]
  chromatographic logP: 0.53
[1]; [7]
  chromatographic logP: 0.84
[1]; reversed-phase HPLC column (C18), neutral range, pH 7.8, HPLC C18, 43° C., Table 1, read-out: logP [n]
  chromatographic logP: 0.42
[2]; [4]
  pest or weed control at 20 ppm: 100%
[3]; [5]
  pest or weed control at 500 g/ha: 90%

## CCCCO/N=C/c1ncc(C(=O)N(C)c2cccnc2)n1C [I-1-027]
[1]; pH 7.8
  logP [n]: 2.08
[2]; [4]
  efficacy in %: 100%
[3]; [5]
  efficacy in %: 100%

## CN(C(=O)c1cnc(/C=N/NC(=O)OCc2ccccc2)n1C)c1cccnc1 [I-1-028]
[1]; pH 7.8
  logP [n]: 1.63
[2]; [4]
  efficacy in %: 100%
[3]; [5]
  efficacy in %: 90%

## CCCCN(/N=C/c1ncc(C(=O)N(C)c2cccnc2)n1C)C(=O)OCC [I-1-029]
[1]; pH 7.8
  logP [n]: 2.06
[2]; [4]
  efficacy in %: 100%
[3]; [5]
  efficacy in %: 90%

## CN(C(=O)c1cnc(C(=O)NC(C)(C)C)n1C)c1cccnc1 [I-1-030]
[1]; pH 7.8
  logP [n]: 1.62
[2]; [4]
  efficacy in %: 100%
[3]; [5]
  efficacy in %: 90%

## CC(C)NC(=O)c1ncc(C(=O)N(C)c2cccnc2)n1C [I-1-032]
[1]; pH 7.8
  logP [n]: 1.26
[2]; [4]
  efficacy in %: 100%
[3]; [5]
  efficacy in %: 100%

## CC(C)CO/N=C/c1ncc(C(=O)N(C)c2cccnc2)n1C [I-1-034]
[1]; pH 7.8
  logP [n]: 2.07
[2]; [4]
  efficacy in %: 100%
[3]; [5]
  efficacy in %: 90%

## C#CCO/N=C/c1ncc(C(=O)N(C)c2cccnc2)n1C [I-1-035]
[1]; pH 7.8
  logP [n]: 1.83
[2]; [4]
  efficacy in %: 100%
[3]; [5]
  efficacy in %: 100%

## CN(C(=O)c1cnc(/C=N/OCC(C)(C)C)n1C)c1cccnc1 [I-1-036]
[1]; pH 7.8
  logP [n]: 2.22
[2]; [4]
  efficacy in %: 100%
[3]; [5]
  efficacy in %: 100%

## CN(/N=C/c1ncc(C(=O)N(C)c2cccnc2)n1C)C(=O)OC(C)(C)C [I-1-038]
[1]; pH 7.8
  logP [n]: 1.82
[2]; [4]
  efficacy in %: 100%
[3]; [5]
  efficacy in %: 90%

## CCN(C(=O)c1cnc(C2OCC(C)(C)CO2)n1C)c1cccnc1 [I-1-040]
[1]; pH 7.8
  logP [n]: 1.61
[2]; [4]
  efficacy in %: 100%
[3]; [5]
  efficacy in %: 90%

## CCN(C(=O)c1cnc(/C=N/OC(C)C)n1C)c1cccnc1 [I-1-041]
[1]; pH 7.8
  logP [n]: 1.81
[2]; [4]
  efficacy in %: 100%
[3]; [5]
  efficacy in %: 90%

## CCN(C(=O)c1cnc(/C=N/OCC2CC2)n1C)c1cccnc1 [I-1-042]
[1]; pH 7.8
  logP [n]: 1.86
[2]; [4]
  efficacy in %: 100%
[3]; [5]
  efficacy in %: 100%

## CCCO/N=C/c1ncc(C(=O)N(CC)c2cccnc2)n1C [I-1-043]
[1]; pH 7.8
  logP [n]: 1.85
[2]; [4]
  efficacy in %: 100%
[3]; [5]
  efficacy in %: 90%

## CCNC(=O)c1ncc(C(=O)N(C)c2cccnc2)n1C [I-1-046, N^2-Ethyl-N^5,1-dimethyl-N^5-(pyridin-3-yl)-1H-imidazole-2,5-dicarboxamide]
[1]; reversed-phase HPLC column (C18), acidic range, pH 2.7, HPLC C18, 43° C., preparation examples, read-out: log P[a]
  chromatographic logP: 0.8
[1]; [6]
  chromatographic logP: 0.97
[2]; [4]
  pest or weed control at 20 ppm: 100%
[3]; [5]
  pest or weed control at 500 g/ha: 100%

## CN(C(=O)c1cnc(C(=O)NCC(F)(F)F)n1C)c1cccnc1 [I-1-048]
[1]; pH 7.8
  logP [n]: 1.42
[2]; [4]
  efficacy in %: 100%
[3]; [5]
  efficacy in %: 100%

## COCCOC(=O)N/N=C/c1ncc(C(=O)N(C)c2cccnc2)n1C [I-1-049]
[1]; pH 7.8
  logP [n]: 1.26
[2]; [4]
  efficacy in %: 100%
[3]; [5]
  efficacy in %: 90%

## CCO/N=C/c1ncc(C(=O)N(CC)c2cccnc2)n1C [I-1-051]
[1]; pH 7.8
  logP [n]: 1.66
[2]; [4]
  efficacy in %: 100%
[3]; [5]
  efficacy in %: 100%

## CN(C(=O)c1cnc(/C=N/OC2CCCC2)n1C)c1cccnc1 [I-1-052]
[1]; pH 7.8
  logP [n]: 2.14
[2]; [4]
  efficacy in %: 100%
[3]; [5]
  efficacy in %: 100%

## CCN(C)C(=O)c1ncc(C(=O)N(C)c2cccnc2)n1C [I-1-053]
[1]; pH 7.8
  logP [n]: 0.87
[2]; [4]
  efficacy in %: 100%
[3]; [5]
  efficacy in %: 90%

## CNC(=O)c1ncc(C(=O)N(C)c2cccnc2)n1C [I-1-061]
[1]; pH 7.8
  logP [n]: 0.7
[2]; [4]
  efficacy in %: 100%

## CN(C(=O)c1cnc(C(=O)NCC2CC2)n1C)c1cccnc1 [I-1-063]
[1]; pH 7.8
  logP [n]: 1.39
[2]; [4]
  efficacy in %: 100%

## COC(=O)CNC(=O)c1ncc(C(=O)N(C)c2cccnc2)n1C [I-1-077]
[1]; pH 7.8
  logP [n]: 0.93
[2]; [4]
  efficacy in %: 90%

## CCONC(=O)c1ncc(C(=O)N(C)c2cccnc2)n1C [I-1-078]
[1]; pH 7.8
  logP [n]: 0.67
[3]; [5]
  efficacy in %: 90%

## CC(C)C(=O)c1ncc(C(=O)N(C)c2cccnc2)n1C [I-1-082, 2-Isobutyryl-N,1-dimethyl-N-(pyridin-3-yl)-1H-imidazole-5-carboxamide]
[1]; [6]
  chromatographic logP: 1.55
[3]; [5]
  pest or weed control at 500 g/ha: 100%

## CCC(=O)c1ncc(C(=O)N(C)c2cccnc2)n1C [I-1-086]
[1]; pH 7.8
  logP [n]: 1.23
[3]; [5]
  efficacy in %: 90%

## CCN(C)C(=O)c1ncc(C(=O)N(c2cccnc2)C2CC2)n1C [I-1-087]
[1]; pH 7.8
  logP [n]: 1.11

## CN(C(=O)c1cnc(C(=O)NS(=O)(=O)C2CC2)n1C)c1cccnc1 [I-1-088]
[1]; pH 7.8
  logP [n]: 0.72

## CN(C(=O)c1cnc(C(=O)NCCO)n1C)c1cccnc1 [I-1-089]
[1]; pH 7.8
  logP [n]: 0.45

## CN(C(=O)c1cncn1C)c1cccnc1 [N,1-Dimethyl-N-(pyridin-3-yl)-1H-imidazole-5-carboxamide]
[1]; [6]
  chromatographic logP: 0.44
